Test results: patent publication US10179782B2, “Substituted sulfonamide compounds” (Genentech, Inc., priority 2016, dated 2019)

Biological target: T1, human TRPA1 (Homo sapiens, UniProt O75762)
T1 construct: expressed in transfected cells; host or cells: CHO cells
Assay: TRPA1 FLIPR Tetra calcium influx assay in CHO cells (block of cinnamaldehyde-induced calcium influx)
Assay type: cell-based
Conditions: Table 2; CHO cells expressing TRPA1; agonist cinnamaldehyde 75 uM; 20 min compound incubation; Hill coefficient fixed to 1.5; read-out: hTRPA1 CHO Ca2+ AUC EVO (IC50)
Summary of the method: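 CHO cells expressing TRPA1 were loaded with calcium dye in HBSS/20 mM HEPES, pH 7.4, 0.02% BSA, then given compound for 20 min at room temperature before ~EC80 cinnamaldehyde (75 µM human, 45 µM rat). Block of calcium influx was read on FLIPR Tetra; IC50 fitted with Hill coefficient fixed at 1.5.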

T1 sequence (O75762 whole entry): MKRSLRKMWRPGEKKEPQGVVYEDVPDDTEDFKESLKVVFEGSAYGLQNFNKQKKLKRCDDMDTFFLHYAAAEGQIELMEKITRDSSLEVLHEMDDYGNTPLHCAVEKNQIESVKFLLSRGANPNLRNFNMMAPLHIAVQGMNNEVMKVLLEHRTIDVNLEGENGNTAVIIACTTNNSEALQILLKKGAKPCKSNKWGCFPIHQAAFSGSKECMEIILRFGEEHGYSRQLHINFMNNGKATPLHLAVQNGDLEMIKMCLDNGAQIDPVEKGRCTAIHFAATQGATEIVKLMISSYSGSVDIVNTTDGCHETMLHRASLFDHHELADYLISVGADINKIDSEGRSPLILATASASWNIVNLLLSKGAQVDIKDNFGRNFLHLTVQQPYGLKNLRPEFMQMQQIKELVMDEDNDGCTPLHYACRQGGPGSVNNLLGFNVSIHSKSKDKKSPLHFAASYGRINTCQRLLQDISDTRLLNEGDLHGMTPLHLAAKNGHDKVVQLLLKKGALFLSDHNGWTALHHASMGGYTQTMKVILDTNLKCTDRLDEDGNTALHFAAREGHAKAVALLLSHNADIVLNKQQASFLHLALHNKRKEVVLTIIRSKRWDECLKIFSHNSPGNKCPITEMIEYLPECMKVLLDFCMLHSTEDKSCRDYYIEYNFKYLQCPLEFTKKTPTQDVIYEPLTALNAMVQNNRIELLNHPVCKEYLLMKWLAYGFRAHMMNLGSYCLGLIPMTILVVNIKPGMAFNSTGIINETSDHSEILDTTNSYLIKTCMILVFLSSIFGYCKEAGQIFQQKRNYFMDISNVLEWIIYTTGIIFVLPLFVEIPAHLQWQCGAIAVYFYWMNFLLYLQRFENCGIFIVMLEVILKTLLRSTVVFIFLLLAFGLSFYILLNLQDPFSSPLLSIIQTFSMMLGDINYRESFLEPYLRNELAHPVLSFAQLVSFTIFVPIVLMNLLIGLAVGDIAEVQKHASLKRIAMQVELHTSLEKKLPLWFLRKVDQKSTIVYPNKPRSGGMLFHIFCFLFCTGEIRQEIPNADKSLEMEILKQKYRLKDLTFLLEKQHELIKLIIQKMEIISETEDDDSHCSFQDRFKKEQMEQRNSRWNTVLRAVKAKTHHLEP

SMILES | IC50 [nM]
N#Cc1cc(F)c(-c2cnc(C(F)(F)F)nc2)cc1CNC(=O)[C@@H]1C[C@@H](F)CN1S(=O)(=O)c1ccc(F)cc1 [Example 64, (2S,4R)-N-[[2-cyano-4-fluoro-5-[2-(trifluoromethyl)pyrimidin-5-yl]phenyl]methyl]-4-fluoro-1-(4-fluorophenyl)sulfonyl-pyrrolidine-2-carboxamide] | 44.5
O=C(NCc1cc(-c2cnc(C(F)(F)F)nc2)ncn1)[C@@H]1[C@H]2C[C@H]2CN1S(=O)(=O)c1ccc(F)cc1 [Example 65, (1S,2S,5R)-3-(4-fluorophenyl)sulfonyl-N-[[6-[2-(trifluoromethyl)pyrimidin-5-yl]pyrimidin-4-yl]methyl]-3-azabicyclo[3.1.0]hexane-2-carboxamide] | 64.8
CCc1cc(CNC(=O)[C@@H]2C[C@@H](F)CN2S(=O)(=O)c2ccc(F)cc2)cc(-c2cnc(C(F)(F)F)nc2)n1 [Example 66, (2S,4R)-N-[[2-ethyl-6-[2-(trifluoromethyl)pyrimidin-5-yl]-4-pyridyl]methyl]-4-fluoro-1-(4-fluorophenyl)sulfonyl-pyrrolidine-2-carboxamide] | 76.9
O=C(NCc1cc(-c2cnc(C(F)(F)F)nc2)nc(C2CC2)c1)[C@@H]1C[C@@H](F)CN1S(=O)(=O)c1ccc(F)cc1 [Example 67, (2S,4R)-N-[[2-cyclopropyl-6-[2-(trifluoromethyl)pyrimidin-5-yl]-4-pyridyl]methyl]-4-fluoro-1-(4-fluorophenyl)sulfonyl-pyrrolidine-2-carboxamide] | 65.1
O=C(NCc1ccc(F)c(-c2cnc(C(F)(F)F)nc2)c1)[C@@H]1[C@@H]2[C@H](CN1S(=O)(=O)c1ccc(F)cc1)C2(F)F [Example 69, (1R,4S,5S)-6,6-difluoro-3-(4-fluorophenyl)sulfonyl-N-[[4-fluoro-3-[2-(trifluoromethyl)pyrimidin-5-yl]phenyl]methyl]-3-azabicyclo[3.1.0]hexane-4-carboxamide] | 45.7
O=C(NCc1cc(-c2cnc(C(F)(F)F)nc2)ncc1F)[C@@H]1[C@@H]2[C@H](CN1S(=O)(=O)c1ccc(F)cc1)C2(F)F [Example 71, (1S,2S,5R)-6,6-difluoro-N-((5-fluoro-2-(2-(trifluoromethyl)pyrimidin-5-yl)pyridin-4-yl)methyl)-3-((4-fluorophenyl)sulfonyl)-3-azabicyclo[3.1.0]hexane-2-carboxamide] | 46.2
O=C(NCc1cc(-c2cnc(C(F)(F)F)nc2)nc(C2CC2)n1)[C@@H]1C[C@@H](F)CN1S(=O)(=O)c1ccc(F)cc1 [Example 73, (2S,4R)-N-[[2-cyclopropyl-6-[2-(trifluoromethyl)pyrimidin-5-yl]pyrimidin-4-yl]methyl]-4-fluoro-1-(4-fluorophenyl)sulfonyl-pyrrolidine-2-carboxamide] | 56.7
O=C(NCc1cc(-c2cnc(C(F)(F)F)nc2)c(F)cc1F)[C@@H]1C[C@@H](F)CN1S(=O)(=O)c1ccc(F)cc1 [Example 74, (2S,4R)-N-[[2,4-difluoro-5-[2-(trifluoromethyl)pyrimidin-5-yl]phenyl]methyl]-4-fluoro-1-(4-fluorophenyl)sulfonyl-pyrrolidine-2-carboxamide] | 65.1
C[C@@]1(F)C[C@@H](C(=O)NCc2cc(Cl)nc(-c3cnc(C(F)(F)F)nc3)c2)N(S(=O)(=O)c2ccc(F)cc2)C1 [Example 75, (2S,4R)-N-[[2-chloro-6-[2-(trifluoromethyl)pyrimidin-5-yl]-4-pyridyl]methyl]-4-fluoro-1-(4-fluorophenyl)sulfonyl-4-methyl-pyrrolidine-2-carboxamide] | 66.6
O=C(NCc1ccc(F)c(-c2cnc(C(F)(F)F)s2)c1)[C@@H]1C[C@@H](F)CN1S(=O)(=O)c1ccc(F)cc1 [Example 77, (2S,4R)-4-fluoro-1-(4-fluorophenyl)sulfonyl-N-[[4-fluoro-3-[2-(trifluoromethyl)thiazol-5-yl]phenyl]methyl]pyrrolidine-2-carboxamide] | 73.3
COC[C@H]1CC[C@@H](C(=O)NCc2cc(-c3cnc(C(F)(F)F)nc3)ncc2F)N1S(=O)(=O)c1ccc(F)cc1 [Example 80, (2S,5R)-N-((5-fluoro-2-(2-(trifluoromethyl)pyrimidin-5-yl)pyridin-4-yl)methyl)-1-((4-fluorophenyl)sulfonyl)-5-(methoxymethyl)pyrrolidine-2-carboxamide] | 98.2
C[C@H]1[C@H](F)C[C@@H](C(=O)NCc2cc(N3CC(OC(F)(F)F)C3)nc(C3CC3)n2)N1S(=O)(=O)c1ccc(F)cc1 [Example 81, (2S,4R,5S)-N-[[2-cyclopropyl-6-[3-(trifluoromethoxy)azetidin-1-yl]pyrimidin-4-yl]methyl]-4-fluoro-1-(4-fluorophenyl)sulfonyl-5-methyl-pyrrolidine-2-carboxamide] | 55.3
C[C@H]1[C@H](F)C[C@@H](C(=O)NCc2cc(OCCOC(F)(F)F)c(F)cn2)N1S(=O)(=O)c1ccc(F)cc1 [Example 82, (2S,4R,5S)-4-fluoro-1-(4-fluorophenyl)sulfonyl-N-[[5-fluoro-4-[2-(trifluoromethoxy)ethoxy]-2-pyridyl]methyl]-5-methyl-pyrrolidine-2-carboxamide] | 166
C[C@H]1[C@H](F)C[C@@H](C(=O)NCc2cc(OCC3(C(F)(F)F)CC3)nc(C3CC3)n2)N1S(=O)(=O)c1ccc(F)cc1 [Example 83, (2S,4R,5S)-N-[[2-cyclopropyl-6-[[1-(trifluoromethyl)cyclopropyl]methoxy]pyrimidin-4-yl]methyl]-4-fluoro-1-(4-fluorophenyl)sulfonyl-5-methyl-pyrrolidine-2-carboxamide] | 147
C[C@H]1[C@H](C#N)C[C@@H](C(=O)NCc2cc(-c3cnc(C(F)(F)F)nc3)ncc2F)N1S(=O)(=O)c1ccc(F)cc1 [Example 84, (2S,4R,5S)-4-cyano-1-(4-fluorophenyl)sulfonyl-N-[[5-fluoro-2-[2-(trifluoromethyl)pyrimidin-5-yl]-4-pyridyl]methyl]-5-methyl-pyrrolidine-2-carboxamide] | 65.3
C[C@H]1[C@H](F)C[C@@H](C(=O)NCc2cc(-c3cnc(C(F)(F)F)nc3)c(C#N)cn2)N1S(=O)(=O)c1ccc(F)cc1 [Example 86, (2S,4R,5S)-N-[[5-cyano-4-[2-(trifluoromethyl)pyrimidin-5-yl]-2-pyridyl]methyl]-4-fluoro-1-(4-fluorophenyl)sulfonyl-5-methyl-pyrrolidine-2-carboxamide] | 124
C[C@H]1[C@H](F)C[C@@H](C(=O)NCc2cc(-c3cnc(C(F)(F)F)cn3)ncn2)N1S(=O)(=O)c1ccc(F)cc1 [Example 87, (2S,4R,5S)-4-fluoro-1-(4-fluorophenyl)sulfonyl-5-methyl-N-[[6-[5-(trifluoromethyl)pyrazin-2-yl]pyrimidin-4-yl]methyl]pyrrolidine-2-carboxamide] | 184

The next molecules have a lower IC50 than those just listed; values first:

IC50 [nM] | SMILES
6.16 | O=C(NCc1cc(-c2cnc(C(F)(F)F)nc2)ncc1Cl)[C@@H]1[C@H]2C[C@H]2CN1S(=O)(=O)c1ccc(F)cc1 [Example 63, (1S,2S,5R)-N-[[5-chloro-2-[2-(trifluoromethyl)pyrimidin-5-yl]-4-pyridyl]methyl]-3-(4-fluorophenyl)sulfonyl-3-azabicyclo[3.1.0]hexane-2-carboxamide]
14.7 | CC1(C)[C@@H]2[C@@H](C(=O)NCc3cc(-c4cnc(C(F)(F)F)nc4)ncc3F)N(S(=O)(=O)c3ccc(F)cc3)C[C@@H]21 [Example 72, (1S,4S,5R)-3-(4-fluorophenyl)sulfonyl-N-[[5-fluoro-2-[2-(trifluoromethyl)pyrimidin-5-yl]-4-pyridyl]methyl]-6,6-dimethyl-3-azabicyclo[3.1.0]hexane-4-carboxamide]
39.3 | O=C(NCc1cc(-c2cnc(C(F)(F)F)nc2)cc(F)c1F)[C@@H]1C[C@@H](F)CN1S(=O)(=O)c1ccc(F)cc1 [Example 76, (2S,4R)-N-[[2,3-difluoro-5-[2-(trifluoromethyl)pyrimidin-5-yl]phenyl]methyl]-4-fluoro-1-(4-fluorophenyl)sulfonyl-pyrrolidine-2-carboxamide]
23.4 | CC1(C)[C@@H]2[C@@H](C(=O)NCc3ccc(F)c(-c4cnc(C(F)(F)F)nc4)c3)N(S(=O)(=O)c3ccc(F)cc3)C[C@@H]21 [Example 78, (1S,4S,5R)-3-(4-fluorophenyl)sulfonyl-N-[[4-fluoro-3-[2-(trifluoromethyl)pyrimidin-5-yl]phenyl]methyl]-6,6-dimethyl-3-azabicyclo[3.1.0]hexane-4-carboxamide]
33.7 | C[C@H]1[C@H](F)C[C@@H](C(=O)NCc2cc(-c3cnc(C(F)(F)F)s3)c(F)cn2)N1S(=O)(=O)c1ccc(F)cc1 [Example 85, (2S,4R,5S)-4-fluoro-1-(4-fluorophenyl)sulfonyl-N-[[5-fluoro-4-[2-(trifluoromethyl)thiazol-5-yl]-2-pyridyl]methyl]-5-methyl-pyrrolidine-2-carboxamide]
42.3 | C[C@H]1[C@H](F)C[C@@H](C(=O)NCc2cc(C3CCN(CC(F)(F)F)CC3)ncc2F)N1S(=O)(=O)c1ccc(F)cc1 [Example 88, (2S,4R,5S)-4-fluoro-1-(4-fluorophenyl)sulfonyl-N-[[5-fluoro-2-[1-(2,2,2-trifluoroethyl)-4-piperidyl]-4-pyridyl]methyl]-5-methyl-pyrrolidine-2-carboxamide]
7.08 | C[C@H]1[C@H](F)C[C@@H](C(=O)NCc2cc(-c3cnc(C(F)(F)F)nc3)ncc2F)N1S(=O)(=O)c1ccc(Br)cc1 [Example 89, (2S,4R,5S)-1-(4-bromophenyl)sulfonyl-4-fluoro-N-[[5-fluoro-2-[2-(trifluoromethyl)pyrimidin-5-yl]-4-pyridyl]methyl]-5-methyl-pyrrolidine-2-carboxamide]
2.5 | C[C@H]1[C@H](F)C[C@@H](C(=O)NCc2cc(-c3cnc(C(F)(F)F)nc3)ncc2F)N1S(=O)(=O)c1ccc(Cl)cc1 [Example 90]
